Publication PMC8160850 (Viruses, 2021)
Where “and” joins values, the source holds several entries; their conditions need not be identical. Identical values can stand only once. Like-named read-outs stand apart in the source and are kept apart here.

Assays:
MRC5 cells [1] = assay: Intracellular ATP quantification; assay type: cell-based; details: for Reduction of intracellular ATP levels: 100 μM
HCMV TB4-UL83-EYFP [2] = assay type: cell-based, human cytomegalovirus (HCMV); details: 7 days p.i., MOI 0.03 IU/cell
[3] = MTT cell cytotoxicity assay; assay type: cell-based; details: human, uninfected MRC5 cells, MTT, uninfected MRC5, 7 days
MRC5 cells [4] = assay: MTT cell cytotoxicity assay; assay type: cell-based; details: for Selectivity index (SI), CC50/ED50: MTT CC50 / FRA ED50 TB4-UL83-EYFP; for Cytotoxicity (in words): MRC5, up to 100 μM, 7 days
HCMV TB4-UL83-EYFP [5] = assay: Dose-response fluorescence reduction assay; assay type: cell-based, human cytomegalovirus (HCMV); details: FRA, MRC5, MOI 0.03 IU/cell, 7 days p.i.
MRC5 cells [6] = assay type: cell-based
MRC5 cells [7] = assay: Cell viability of uninfected cells in the screening; assay type: cell-based; details: 7 days
AD169-GFP [8] = assay: FRA with AD169-GFP in MRC5 cells; assay type: cell-based, human cytomegalovirus (HCMV); details: MRC5, MOI 0.05 IU/cell, 7 days, n = 6
[9] = test system: HCMV AD169 gene expression (IE1, ppUL44, pp65, pp28); assay: Analysis of HCMV gene expression by Western blotting in infected MRC5 cells; assay type: cell-based, human cytomegalovirus (HCMV); details: GCV 16 μM, B3 50 μM; for IE1 expression: 6 and 12 h p.i., AD169 MOI 2 IU/cell; for Expression of ppUL44 and pp65: 48 h p.i.; for pp28 expression: 72 h and 96 h p.i.; for ppUL44 and pp65 levels: up to 24 h p.i.
AD169-GFP [10] = assay: Virus yield reduction assay (VYRA) with AD169-GFP; assay type: cell-based, human cytomegalovirus (HCMV); details: n = 4
AD169-GFP26 (UL97 M460I) [11] = assay: FRA with GCV-resistant AD169-GFP26 in MRC5 cells; assay type: cell-based, human cytomegalovirus (HCMV); details: MRC5, MOI 0.05 IU/cell, 7 days, n = 6
AD169-GFP26 (UL97 M460I) [12] = assay: Virus yield reduction assay (VYRA) with AD169-GFP26; assay type: cell-based, human cytomegalovirus (HCMV); details: AD169-GFP26 (GCV-resistant), n = 4
HCMV AD169 = assay: Plaque reduction assay (PRA) in HFF cells; assay type: cell-based, human cytomegalovirus (HCMV)
[13] = test system: HCMV TB4-UL83-EYFP genome; assay: Analysis of HCMV DNA replication by qPCR in infected MRC5 cells; assay type: cell-based, human cytomegalovirus (HCMV); details: for Decrease in viral genome copy number: B3 50 μM, MOI 0.01 IU/cell
hepatitis C virus (HCV) = test system: hepatitis C virus (HCV); set-up: method as in earlier work; details: Huh7-Lunet cells ref 60; cited from earlier work

Row | SMILES | Reduction of intracellular ATP levels (MRC5 cells [1]; 24 h post treatment) | Inhibition of viral replication (YFP fluorescence) (HCMV TB4-UL83-EYFP [2]; 10 μM) | CC50 at 7 days [3] [µM] | Selectivity index (SI), CC50/ED50 (MRC5 cells [4]) | Cytotoxicity (in words) (MRC5 cells [4]; MTT) | ED50 (AD169-GFP [8]) | IE1 expression [9] | Expression of ppUL44 and pp65 [9] | pp28 expression [9] | ppUL44 and pp65 levels [9] | ED50 (AD169-GFP [10]) | ED50 (AD169-GFP26 (UL97 M460I) [11]) [µM] | ED50 (AD169-GFP26 (UL97 M460I) [12]) [µM] | ED50 (HCMV AD169) [µM] | further results
1 | Cc1ccc(-c2nnc(Nc3ccc(CC(N)=O)cc3)c3ccccc23)cc1S(=O)(=O)NC1CCCCC1 [B6] | more than 50% | inhibited viral replication | ~10 | < 5 |  |  |  |  |  |  |  |  |  |  | Reduction of intracellular ATP levels (MRC5 cells [1]; 72 h post treatment): ~100%; CC50 (MRC5 cells [4]; MTT, uninfected MRC5, 7 days): 10.7 ± 2.3 µM; ED50 (HCMV TB4-UL83-EYFP [5]): 2.1 ± 0.6 µM
2 | CCOc1ccccc1[C@H]1C(C#N)=C(SCC(=O)OC)NC(=O)[C@@H]1C#N [A4] |  |  |  |  |  |  |  |  |  |  |  |  |  |  | Solubility in culture medium (precipitates) (MRC5 cells [6]): not soluble; Cytotoxicity (MRC5 cells [7]; 10 μM, uninfected MRC5): caused evident cytotoxicity
3 | O=C(O)C[C@H]1S/C(=N/N=C/c2c(OCc3ccccc3Cl)ccc3ccccc23)NC1=O [C6] | more than 30% |  | > 100 |  | low cytotoxicity |  |  |  |  |  |  |  |  |  | Cell morphology upon microscopic evaluation (MRC5 cells [6]): significantly altered; Inhibition of viral replication (YFP fluorescence) (HCMV TB4-UL83-EYFP [2]; 100 μM): impaired viral replication; Reduction of cell viability (MRC5 cells [7]; 100 μM, MTS and CellTiter Glo): ≤ 40%
4 | Nc1nc(O)c2ncn(COC(CO)CO)c2n1 [GCV, Ganciclovir, reference compound] |  |  | > 100 |  | did not cause detectable cytotoxic effects at any concentration tested | 2.3 µM and 2.3 ± 1.9 µM | neither GCV nor B3 treatment affected IE1 expression | decrease | strongly inhibited | not affected | 0.7 µM and 0.7 ± 0.4 µM | 21.7 ± 9.6 | 4.7 ± 4.8 | 1.3 ± 0.9 | Viral genome copy number (in words) ([13]; GCV 16 μM, starting from 72 h p.i.): significantly reduced viral genome copy number
5 | OC[C@@H](O)Cn1c(Cc2cccc3ccccc23)nc2ccccc21 [B3] |  | inhibited viral replication | > 100 | > 20 | did not cause evident cytotoxicity up to 100 μM | 7.9 µM and 7.9 ± 2.7 µM | neither GCV nor B3 treatment affected IE1 expression | decrease | strongly inhibited | not affected | 5.1 ± 3.3 µM | 17.6 ± 12.8 | 9.8 ± 15.6 | 7.9 ± 3.5 | Effect on intracellular ATP levels (MRC5 cells [1]; all time points analyzed (24, 72, 144 h)): minimal effects; Effect on protein expression and hepatitis C virus replication (hepatitis C virus (HCV)): did not affect either protein expression nor hepatitis C virus replication; Decrease in viral genome copy number ([13]; 72 h p.i.): ~ 4 fold; Decrease in viral genome copy number ([13]; 120 h p.i.): 6 fold
